Read-outs that look alike come from different tables or passages of the source.
Assays:
[1] = test system: K562 cells; assay: Cell Titer Glo 2.0 cell viability (toxicity) assay, K562; conditions: 500 cells/well, 72 hours
[2] = test system: MYB; assay: HiBiT protein abundance assay, MYB (K562 HiBiT knock-in); assay type: cell-based, human; conditions: HiBiT knock-in K562 cells, 24 hours, top dose 10 μM
Procedure, shortened: (§1)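 Steps: seed HiBiT knock-in K562 cells; add compound in 10-point 3-fold series from 10 μM final; incubate 24 h, 37 °C; add lytic HiBiT reagent, shake 5 min, wait 10 min; read luminescence. Normalize to parental K562 and DMSO controls, fit 4PL, take IC50.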

[3] = test system: HTT; assay: HiBiT protein abundance assay, HTT (K562 HiBiT knock-in); assay type: cell-based, human; conditions: HiBiT knock-in K562 cells, 24 hours, top dose 10 μM
Procedure, shortened: as §1

[4] = test system: SMN2 mRNA; assay: RT-qPCR splicing assay, SMN2 mRNA; assay type: cell-based, human; conditions: canonical junction qPCR panel, Table 4, read-out: SMN2 IC50 (decrease in CJ mRNA levels)
Procedure, shortened: (§2)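 Canonical and alternative-exon junction isoforms were quantified by RT-qPCR in cell lysates, with ΔCt against a housekeeper (GAPDH/GUSB/PPIA), then ΔΔCt vs DMSO, converted to 2^(−ΔΔCt) and percent response. K562 or A673 cells were exposed for 24 h to 11 concentrations (3-fold, top final 10 uM).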

[5] = test system: Target C; assay: HiBiT protein abundance assay, Target C (K562 HiBiT knock-in); assay type: cell-based, human; conditions: HiBiT knock-in K562 cells, 24 hours, top dose 10 μM
Procedure, shortened: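 K562 HiBiT knock-in cells (10000/well) were treated 24 h at 37° C with a 10-point 3-fold dilution series (top 10 μM final, ≤0.25% DMSO). HiBiT luminescence was read after lytic LgBiT detection. Percent response used unmodified K562 and DMSO-treated knock-in controls, and IC50 came from a four-parameter fit at 50% of untreated.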

[6] = test system: MYB mRNA; assay: RT-qPCR splicing assay, MYB mRNA canonical (CJ) and alternative (AJ) junction; assay type: cell-based, human; conditions: for AC50: MYB alternative junction mRNA, read-out: MYB AJ (increase in AJ mRNA, AC50)
Procedure, shortened: as §2

[7] = Homo sapiens, MYB canonical junction mRNA, RT-qPCR, read-out: MYB CJ (decrease in CJ mRNA levels, IC50)
[8] = Homo sapiens, canonical junction qPCR panel, Table 4, read-out: MYB IC50 (decrease in CJ mRNA levels)

| IC50 [2] [nM] | IC50 [3] [nM] | IC50 ([4]; Homo sapiens) [nM] | IC50 [5] [nM] | IC50 [6, 7] [nM] | IC50 [6, 8] [nM] | IC50 [4] [nM] | IC50 ([6]; MYB canonical junction mRNA, RT-qPCR, read-out: MYB CJ (decrease in CJ mRNA levels, IC50)) [nM] | IC50 ([6]; canonical junction qPCR panel, Table 4, read-out: MYB IC50 (decrease in CJ mRNA levels)) [nM] | Structure (SMILES) | Effect of Exemplary Compounds on Cell Viability, K562 [1] | AC50 ([6]; Homo sapiens, RT-qPCR) [nM] | AC50 ([6]; RT-qPCR) [nM] |
| --- | --- | --- | --- | --- | --- | --- | --- | --- | --- | --- | --- | --- |
| < 100 | < 100 | < 100 | < 100 | < 100 | < 100 |  |  |  | CC(C)N[C@@H]1CCN(c2ccc3nc(-c4cc5cn(C)nc5c(F)c4O)ccc3n2)C1 (single isomer, unassigned) [Compound 285] | A (A represents <100 nM) | < 100 |  |
| < 100 | < 100 | < 100 | < 100 | < 100 | < 100 |  |  |  | Cc1c(O)c(-c2ccc3nc(N4CC[C@@H](NC5CCC5)C4)ccc3n2)cc2cn(C)nc12 (single isomer, unassigned) [Compound 289] | A (A represents <100 nM) | < 100 |  |
| < 100 | < 100 | < 100 | < 100 | < 100 | < 100 |  |  |  | Cc1c(O)c(-c2ccc3nc(N4CC[C@H](NC5CCC5)C4)ccc3n2)cc2cn(C)nc12 (single isomer, unassigned) [Compound 290] | A (A represents <100 nM) | < 100 |  |
| < 100 | < 100 | < 100 | < 100 | 100 to 1000 | 100 to 1000 |  |  |  | Cc1nc2c(C)c(O)c(-c3ccc4nc(N5CC[C@H](NCC6CC6)C5)ccc4n3)cc2o1 (single isomer, unassigned) [Compound 296] | B (B represents 100-1000 nM) | < 100 |  |
| < 100 | < 100 | < 100 | < 100 | < 100 | < 100 |  |  |  | Cn1cc2cc(-c3ccc4nc(N5CC[C@@H](N[C@H]6C[C@@H](F)C6)C5)ccc4n3)c(O)cc2n1 (single isomer, unassigned) [Compound 300] | B (B represents 100-1000 nM) | < 100 |  |
| < 100 | < 100 | < 100 | < 100 | < 100 | < 100 |  |  |  | Cn1cc2cc(-c3ccc4nc(N5CC[C@@H](NCC6CC6)C5)ccc4n3)c(O)c(F)c2n1 (single isomer, unassigned) [Compound 303] | A (A represents <100 nM) | < 100 |  |
| < 100 | < 100 | < 100 | < 100 | < 100 | < 100 |  |  |  | Cn1cc2cc(-c3ccc4nc(N5CC[C@@H](NC6CC6)C5)ccc4n3)c(O)c(F)c2n1 (single isomer, unassigned) [Compound 305] | A (A represents <100 nM) | < 100 |  |
| < 100 | < 100 | < 100 | < 100 | < 100 | < 100 |  |  |  | Cc1nc2c(F)c(O)c(-c3ccc4nc(N5CC[C@@H](NC6CCC6)C5)ccc4n3)cc2o1 (single isomer, unassigned) [Compound 307] | A (A represents <100 nM) | < 100 |  |
| < 100 | < 100 | < 100 | < 100 | < 100 | < 100 |  |  |  | Cc1nc2c(C)c(O)c(-c3ccc4nc(N5CC[C@@H](NC6(C)CC6)C5)ccc4n3)cc2o1 (single isomer, unassigned) [Compound 310] | A (A represents <100 nM) | < 100 |  |

Second part, the compound before the results:

| Structure (SMILES) | IC50 [2] [nM] | IC50 [3] [nM] | IC50 ([4]; Homo sapiens) [nM] | IC50 [5] [nM] | IC50 [6, 7] [nM] | IC50 [6, 8] [nM] | IC50 [4] [nM] | IC50 ([6]; MYB canonical junction mRNA, RT-qPCR, read-out: MYB CJ (decrease in CJ mRNA levels, IC50)) [nM] | IC50 ([6]; canonical junction qPCR panel, Table 4, read-out: MYB IC50 (decrease in CJ mRNA levels)) [nM] | Effect of Exemplary Compounds on Cell Viability, K562 [1] | AC50 ([6]; Homo sapiens, RT-qPCR) [nM] | AC50 ([6]; RT-qPCR) [nM] |
| --- | --- | --- | --- | --- | --- | --- | --- | --- | --- | --- | --- | --- |
| Cn1cc2cc(-c3ccc4nc(N5CCC(NC6CC6)C5)ccc4n3)c(O)c(F)c2n1 (racemic) [Compound 287, 5-{6-[3-(cyclopropylamino)pyrrolidin-1-yl]-1,5-naphthyridin-2-yl}-7-fluoro-2-methylindazol-6-ol; trifluoroacetic acid] | < 100 | < 100 | < 100 | < 100 | < 100 | < 100 |  |  |  | A (A represents <100 nM) | < 100 |  |
| CC(C)N[C@H]1CCN(c2ccc3nc(-c4cc5cn(C)nc5c(F)c4O)ccc3n2)C1 (single isomer, unassigned) [Compound 286] | < 100 | < 100 | < 100 | < 100 | < 100 | < 100 |  |  |  | A (A represents <100 nM) | < 100 |  |
| Cc1nc2cc(O)c(-c3ccc4nc(N5CCC(NCC6CC6)C5)ccc4n3)cc2o1 (single isomer, unassigned) [Compound 291, 6-(6-{3-[(cyclopropylmethyl)amino]pyrrolidin-1-yl}-1,5-naphthyridin-2-yl)-2-methyl-1,3-benzoxazol-5-ol] | 100 to 1000 | < 100 | < 100 | 100 to 1000 | 100 to 1000 | 100 to 1000 |  |  |  | B (B represents 100-1000 nM) | 100 to 1000 |  |
| Cc1nc2cc(O)c(-c3ccc4nc(N5CCC(NCC6CC6)C5)ccc4n3)cc2o1 (single isomer, unassigned) [Compound 292, 6-(6-{3-[(cyclopropylmethyl)amino]pyrrolidin-1-yl}-1,5-naphthyridin-2-yl)-2-methyl-1,3-benzoxazol-5-ol] | 100 to 1000 | < 100 |  | < 100 |  |  | < 100 | < 100 | < 100 | B (B represents 100-1000 nM) |  | 100 to 1000 |
| Cc1nc2c(C)c(O)c(-c3ccc4nc(N5CC[C@@H](NCC6CC6)C5)ccc4n3)cc2o1 (single isomer, unassigned) [Compound 295] | < 100 | < 100 | < 100 | < 100 | < 100 | < 100 |  |  |  | B (B represents 100-1000 nM) | < 100 |  |
| Cn1cc2cc(-c3ccc4nc(N5CC[C@H](NCC6CC6)C5)ccc4n3)c(O)c(F)c2n1 (single isomer, unassigned) [Compound 304] | < 100 | < 100 | < 100 | < 100 | < 100 | < 100 |  |  |  | A (A represents <100 nM) | < 100 |  |
| Cn1cc2cc(-c3ccc4nc(N5CC[C@H](NC6CC6)C5)ccc4n3)c(O)c(F)c2n1 (single isomer, unassigned) [Compound 306] | < 100 | < 100 | < 100 | < 100 | < 100 | < 100 |  |  |  | A (A represents <100 nM) | < 100 |  |
| Cc1nc2c(F)c(O)c(-c3ccc4nc(N5CC[C@H](NC6CCC6)C5)ccc4n3)cc2o1 (single isomer, unassigned) [Compound 308] | < 100 | < 100 | < 100 | < 100 | < 100 | < 100 |  |  |  | A (A represents <100 nM) | < 100 |  |
| Cc1cn2nc(-c3ccc4nc(N5CCC(NC6CC6)C5)ccc4n3)c(O)c2c(C)n1 (centres unmarked) [Compound 252] | 100 to 1000 | 100 to 1000 | < 100 | 100 to 1000 | 100 to 1000 | 100 to 1000 |  |  |  |  | 100 to 1000 |  |
